This is an account of results in patent publication US11034650B2, “Compounds useful for treating a Mannheimia haemolytica or Histophilus somni infection” (Intervet Inc., priority 2016, dated 2021).

Molecules are shown by their SMILES. In brackets after ≈: the same amount, converted by molar mass.

Holding throughout (type): cell-based
For assay [1], the system named is Mannheimia haemolytica MH 6357 (M7/2, reference strain, cattle infection strain). Description: MIC, broth-microdilution (CLSI VET01-A4), strain MH 6357. The note with it: Mannheimia haemolytica strain MH 6357, broth-microdilution; unit assumed. The procedure, abridged: (§1)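 Compounds were serially diluted twofold in microdilution trays. Growth was judged by eye, and the MIC was the lowest concentration showing no turbidity. Results were interpreted per CLSI VET01-S3.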
(Broth dilution looks for growth in wells or tubes with falling amounts of substance.)

The subject of assay [2] is Mannheimia haemolytica MH 6374 (ATCC 33396, reference strain). Description: MIC, broth-microdilution (CLSI VET01-A4), strain MH 6374. The note with it: Mannheimia haemolytica strain MH 6374, broth-microdilution; unit assumed. The procedure, abridged:
as §1

For assay [3], the system named is Mannheimia haemolytica MH 10720 (154, BRD field isolate). Description: MIC, broth-microdilution (CLSI VET01-A4), strain MH 10720. The note with it: Mannheimia haemolytica strain MH 10720, broth-microdilution; unit assumed. The procedure, abridged:
as §1

Assay [4] deals with Mannheimia haemolytica MH 12587 (1071, BRD field isolate, macrolide-resistance: erm+, E+). In words: MIC, broth-microdilution (CLSI VET01-A4), strain MH 12587. The note with it: Mannheimia haemolytica strain MH 12587, broth-microdilution; unit assumed. The procedure, abridged:
as §1

The test system of assay [5] is Mannheimia haemolytica MH 13065 (XB0446-6003.9, BRD field isolate). Description: MIC, broth-microdilution (CLSI VET01-A4), strain MH 13065. To be noted: Mannheimia haemolytica strain MH 13065, broth-microdilution; unit assumed. The procedure, abridged: as §1
The test system of assay [6] is Mannheimia haemolytica MH 13093 (XB0472-6014.1, BRD field isolate). In words: MIC, broth-microdilution (CLSI VET01-A4), strain MH 13093. To be noted: Mannheimia haemolytica strain MH 13093, broth-microdilution; unit assumed. The procedure, abridged: as §1
Assay [7] deals with Pasteurella multocida PM 6267 (P 2225 (L386), reference strain, mouse infection strain). Description: MIC, broth-microdilution (CLSI VET01-A4), strain PM 6267. To be noted: Pasteurella multocida strain PM 6267, broth-microdilution; unit assumed. The procedure, abridged:
as §1

Assay [8] deals with Pasteurella multocida PM 6391 (ATCC 43137, reference strain). In words: MIC, broth-microdilution (CLSI VET01-A4), strain PM 6391. The note with it: Pasteurella multocida strain PM 6391, broth-microdilution; unit assumed. The procedure, abridged: as §1
For assay [9], the system named is Pasteurella multocida PM 10775 (080130003051, BRD field isolate). In words: MIC, broth-microdilution (CLSI VET01-A4), strain PM 10775. To be noted: Pasteurella multocida strain PM 10775, broth-microdilution; unit assumed. The procedure, abridged:
as §1

Assay [10] concerns Pasteurella multocida PM 12080 (IV102277-0093, BRD field isolate). Description: MIC, broth-microdilution (CLSI VET01-A4), strain PM 12080. The note with it: Pasteurella multocida strain PM 12080, broth-microdilution; unit assumed. The procedure, abridged: as §1

For `CC(C)(O)[C@H](NC(=O)c1ccc(C#Cc2ccc(CNCC(F)(F)F)nc2)cc1)C(=O)NO` [Compound 333], the MIC MH 6357 in assay [1] was found to be 0.4 µg/mL (≈ 0.861 µM). The MIC MH 6374 in assay [2] was found to be 0.8 µg/mL (≈ 1.72 µM). In [3], this molecule displayed an MIC MH 10720 not above 0.1 µg/mL. The same molecule had an MIC MH 12587 in [4] of 1.6 µg/mL (≈ 3.44 µM). This molecule returned an MIC MH 13065 in [5] of 0.8 µg/mL (≈ 1.72 µM). The MIC MH 13093 in assay [6] turned out to be 1.6 µg/mL (≈ 3.44 µM). In assay [7], the MIC PM 6267 was 0.4 µg/mL (≈ 0.861 µM). Further, the MIC PM 6391 in assay [8] worked out at 0.4 µg/mL (≈ 0.861 µM). The molecule also had an MIC PM 10775 in [9] not above 0.1 µg/mL. This molecule also returned an MIC PM 12080 in assay [10] of 0.2 µg/mL (≈ 0.431 µM).
As to `Cc1cnc(CNCc2ccc(C#Cc3ccc(C(=O)N[C@H](C(=O)NO)C(C)(C)O)cc3)cn2)o1` [Compound 334], in assay [1], the MIC MH 6357 stood at 0.4 µg/mL (≈ 0.838 µM). Further, the MIC MH 6374 in assay [2] is 0.4 µg/mL (≈ 0.838 µM). Also, the MIC MH 10720 in assay [3] was not above 0.1 µg/mL. In assay [4], this molecule displayed an MIC MH 12587 of 1.6 µg/mL (≈ 3.35 µM). In assay [5], this molecule came in with an MIC MH 13065 of 0.8 µg/mL (≈ 1.68 µM). In assay [6], this molecule had an MIC MH 13093 of 1.6 µg/mL (≈ 3.35 µM). Besides, the MIC PM 6267 in [7] was 0.4 µg/mL (≈ 0.838 µM). This molecule came in with an MIC PM 6391 in assay [8] of 0.4 µg/mL (≈ 0.838 µM). The molecule further returned an MIC PM 10775 in [9] not above 0.1 µg/mL. Moreover, in assay [10], the MIC PM 12080 amounted to 0.2 µg/mL (≈ 0.419 µM).
`CSC(C)(C)[C@H](NC(=O)c1ccc(C#Cc2ccc(CNC3CC3)nc2)cc1)C(=O)NO` [Compound 335] registered an MIC MH 6357 in [1] of 0.4 µg/mL (≈ 0.884 µM). The molecule further registered an MIC MH 6374 in assay [2] of 0.8 µg/mL (≈ 1.77 µM). The MIC MH 10720 in [3] is not above 0.1 µg/mL. Further, the MIC MH 12587 in [4] was 3.1 µg/mL (≈ 6.85 µM). For the same molecule, the MIC MH 13065 in assay [5] was 0.4 µg/mL (≈ 0.884 µM). This molecule also yielded an MIC MH 13093 in assay [6] of 0.8 µg/mL (≈ 1.77 µM). In addition, the MIC PM 6267 in assay [7] came to 0.4 µg/mL (≈ 0.884 µM). The same molecule returned an MIC PM 6391 in assay [8] of 0.4 µg/mL (≈ 0.884 µM). Also, in assay [9], the MIC PM 10775 was not above 0.1 µg/mL. In addition, the MIC PM 12080 in [10] turned out to be 0.2 µg/mL (≈ 0.442 µM).
On to `C=CCNCc1ccc(C#Cc2ccc(C(=O)N[C@H](C(=O)NO)C(C)(C)SC)cc2)cn1` [Compound 336], for which the MIC MH 6357 in assay [1] was 0.8 µg/mL (≈ 1.77 µM). Besides, the MIC MH 6374 in assay [2] was 0.8 µg/mL (≈ 1.77 µM). This molecule gave an MIC MH 10720 in [3] of 0.2 µg/mL (≈ 0.442 µM). Further, the MIC MH 12587 in assay [4] turned out to be 3.1 µg/mL (≈ 6.85 µM). Moreover, in assay [5], the MIC MH 13065 was 1.6 µg/mL (≈ 3.54 µM). The molecule further returned an MIC MH 13093 in assay [6] of 1.6 µg/mL (≈ 3.54 µM). In assay [7], this molecule gave an MIC PM 6267 of 0.8 µg/mL (≈ 1.77 µM). The molecule also registered an MIC PM 6391 in [8] of 1.6 µg/mL (≈ 3.54 µM). For the same molecule, the MIC PM 10775 in assay [9] is not above 0.1 µg/mL. The molecule further had an MIC PM 12080 in assay [10] of 0.8 µg/mL (≈ 1.77 µM).
With `COCCNCc1ccc(C#Cc2ccc(C(=O)N[C@H](C(=O)NO)C(C)(C)SC)cc2)cn1` [Compound 337], the MIC MH 6357 in assay [1] came to 3.1 µg/mL (≈ 6.59 µM). Also, in [2], the MIC MH 6374 came to 3.1 µg/mL (≈ 6.59 µM). Further, the MIC MH 10720 in assay [3] is 0.8 µg/mL (≈ 1.7 µM). In assay [4], the MIC MH 12587 was determined as 6.3 µg/mL (≈ 13.4 µM). For the same molecule, the MIC MH 13065 in assay [5] came out at 6.3 µg/mL (≈ 13.4 µM). Besides, the MIC MH 13093 in assay [6] was determined as 3.1 µg/mL (≈ 6.59 µM). The same molecule returned an MIC PM 6267 in [7] of 3.1 µg/mL (≈ 6.59 µM). The same molecule showed an MIC PM 6391 in [8] of 1.6 µg/mL (≈ 3.4 µM). Moreover, the MIC PM 10775 in assay [9] is 0.2 µg/mL (≈ 0.425 µM). In assay [10], this molecule came in with an MIC PM 12080 of 0.8 µg/mL (≈ 1.7 µM).
As to `CSC(C)(C)C(NC(=O)c1ccc(C#Cc2ccc(CN3CCOCC3)nc2)cc1)C(=O)NO` (centres unmarked) [Compound 338], the MIC MH 6357 in assay [1] turned out to be 3.1 µg/mL (≈ 6.42 µM). The molecule also gave an MIC MH 6374 in assay [2] of 6.3 µg/mL (≈ 13.1 µM). In assay [3], the MIC MH 10720 was found to be 0.8 µg/mL (≈ 1.66 µM). This molecule showed an MIC MH 12587 in assay [4] of 6.3 µg/mL (≈ 13.1 µM). This molecule had an MIC MH 13065 in assay [5] of 3.1 µg/mL (≈ 6.42 µM). Moreover, the MIC MH 13093 in [6] was found to be 6.3 µg/mL (≈ 13.1 µM). This molecule also showed an MIC PM 6267 in assay [7] of 3.1 µg/mL (≈ 6.42 µM). The molecule further returned an MIC PM 6391 in [8] of 0.8 µg/mL (≈ 1.66 µM). In assay [9], this molecule had an MIC PM 10775 not above 0.1 µg/mL. Moreover, the MIC PM 12080 in assay [10] stood at 0.4 µg/mL (≈ 0.829 µM).
In [1], `CSC(C)(C)[C@H](NC(=O)c1ccc(C#Cc2ccc(CNCc3ccccc3)nc2)cc1)C(=O)NO` [Compound 339] returned an MIC MH 6357 of 0.8 µg/mL (≈ 1.59 µM). The same molecule displayed an MIC MH 6374 in assay [2] of 1.6 µg/mL (≈ 3.18 µM). In [3], this molecule had an MIC MH 10720 not above 0.1 µg/mL. The MIC MH 12587 in assay [4] was 1.6 µg/mL (≈ 3.18 µM). Besides, the MIC MH 13065 in [5] was 0.8 µg/mL (≈ 1.59 µM). The molecule further gave an MIC MH 13093 in [6] of 1.6 µg/mL (≈ 3.18 µM). In [7], this molecule registered an MIC PM 6267 of 0.8 µg/mL (≈ 1.59 µM). Besides, the MIC PM 6391 in [8] stood at 0.8 µg/mL (≈ 1.59 µM). The MIC PM 10775 in assay [9] was not above 0.1 µg/mL. The same molecule had an MIC PM 12080 in assay [10] of 0.2 µg/mL (≈ 0.398 µM).
The molecule `COc1ccc(CNCc2ccc(C#Cc3ccc(C(=O)N[C@H](C(=O)NO)C(C)(C)SC)cc3)cn2)cc1` [Compound 340] registered an MIC MH 6357 in assay [1] of 0.8 µg/mL (≈ 1.5 µM). In addition, in [2], the MIC MH 6374 is 1.6 µg/mL (≈ 3 µM). The MIC MH 10720 in assay [3] is 0.4 µg/mL (≈ 0.751 µM). Further, the MIC MH 12587 in assay [4] came out at 3.1 µg/mL (≈ 5.82 µM). In assay [5], this molecule displayed an MIC MH 13065 of 1.6 µg/mL (≈ 3 µM). Moreover, in assay [6], the MIC MH 13093 worked out at 1.6 µg/mL (≈ 3 µM). This molecule also had an MIC PM 6267 in assay [7] of 1.6 µg/mL (≈ 3 µM). The molecule further returned an MIC PM 6391 in [8] of 1.6 µg/mL (≈ 3 µM). The MIC PM 10775 in assay [9] worked out at 0.2 µg/mL (≈ 0.375 µM). For the same molecule, in assay [10], the MIC PM 12080 was 0.8 µg/mL (≈ 1.5 µM).
